Data: US12384797B2, “Thioeno[3,2-b] pyridin-7-amine compounds for treating familial dysautonomia” (PTC THERAPEUTICS, INC., priority 2019, dated 2025)

tested on: Elongator complex protein 1 (ELP1, also referred to as IKBKAP); experiment: IKBKAP-HTRF assay (IKBKAP protein in lysates of FD patient-derived fibroblasts); type: cell-based, human; conditions: 48 hours incubation, 7-point concentration curve
How it was run: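 FD patient-derived fibroblasts (10,000/well) were treated 48 h at 37 °C with a 7-point, 3.16-fold compound series in triplicate, then lysed. IKBKAP was read by sandwich HTRF (donor/acceptor anti-IKAP antibodies, overnight at 4 °C, 665/620 nm). MFI is ΔF over vehicle ΔF; EC2x is the concentration giving twice the vehicle IKBKAP level.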

Structure (SMILES)	EC2x for IKBKAP protein expression (concentration producing two times the amount of IKBKAP protein vs DMSO vehicle control)	MFI (maximum fold increase in IKBKAP protein abundance relative to the vehicle control)
N[C@H](Cc1sc2c(NCc3ccco3)cc(Cl)nc2c1Cl)C(=O)Nc1ccccc1F [Compound 124, 3-(3,5-dichloro-7-{[(furan-2-yl)methyl]amino}thieno[3,2-b]pyridin-2-yl)-N-(2-fluorophenyl)-D-alaninamide]	**** (between >0.005 μM and ≤0.02 μM is indicated by four stars (****))	***** (>4.9 is indicated by five stars (*****))
C[C@H](F)[C@H](N)Cc1sc2c(NCc3nccs3)cc(Cl)nc2c1Br [Compound 125, 2-[(2R,3S)-2-amino-3-fluorobutyl]-3-bromo-5-chloro-N-[(1,3-thiazol-2-yl)methyl]thieno[3,2-b]pyridin-7-amine]	***** (≤0.005 μM is indicated by five stars (*****))	***** (>4.9 is indicated by five stars (*****))
Cc1c(C[C@@H](N)[C@H](C)F)sc2c(NCc3cccs3)cc(Cl)nc12 [Compound 126, 2-[(2R,3S)-2-amino-3-fluorobutyl]-5-chloro-3-methyl-N-[(thiophen-2-yl)methyl]thieno[3,2-b]pyridin-7-amine]	***** (≤0.005 μM is indicated by five stars (*****))	***** (>4.9 is indicated by five stars (*****))
C[C@H](N)C(O)c1sc2c(NCc3cccs3)cc(Cl)nc2c1Cl (stereo partly drawn) [Compound 127, (2S)-2-amino-1-(3,5-dichloro-7-{[(thiophen-2-yl)methyl]amino}thieno[3,2-b]pyridin-2-yl)propan-1-ol]	**** (between >0.005 μM and ≤0.02 μM is indicated by four stars (****))	***** (>4.9 is indicated by five stars (*****))
Cc1c(C[C@@H](N)[C@H](C)F)sc2c(NCc3nccs3)cc(Cl)nc12 [Compound 128, 2-[(2R,3S)-2-amino-3-fluorobutyl]-5-chloro-3-methyl-N-[(1,3-thiazol-2-yl)methyl]thieno[3,2-b]pyridin-7-amine]	***** (≤0.005 μM is indicated by five stars (*****))	***** (>4.9 is indicated by five stars (*****))
Cc1c(C[C@H](C)N)sc2c(NCc3ncc(F)s3)cc(Cl)nc12 [Compound 129, 2-[(2S)-2-aminopropyl]-5-chloro-N-[(5-fluoro-1,3-thiazol-2-yl)methyl]-3-methylthieno[3,2-b]pyridin-7-amine]	**** (between >0.005 μM and ≤0.02 μM is indicated by four stars (****))	***** (>4.9 is indicated by five stars (*****))
C[C@H](N)C(F)c1sc2c(NCc3cccs3)cc(Cl)nc2c1Cl (stereo partly drawn) [Compound 130, 2-[(2S)-2-amino-1-fluoropropyl]-3,5-dichloro-N-[(thiophen-2-yl)methyl]thieno[3,2-b]pyridin-7-amine]	***** (≤0.005 μM is indicated by five stars (*****))	***** (>4.9 is indicated by five stars (*****))
COC(=O)[C@H](N)Cc1sc2c(NCc3ccco3)cc(Cl)nc2c1C [Compound 131, methyl 3-(5-chloro-7-{[(furan-2-yl)methyl]amino}-3-methylthieno[3,2-b]pyridin-2-yl)-D-alaninate]	**** (between >0.005 μM and ≤0.02 μM is indicated by four stars (****))	**** (between >3.9 and ≤4.9 is indicated by four stars (****))
